Data: patent US6452037B1, “Multioligonanilinated fullerenes” (priority 2001, dated 2002)

Key:
[1] = test system: Fibrosarcoma cells (CCRC 60037); assay: In vitro irradiation-induced cytotoxicity, MTT cell viability, fibrosarcoma cells; type: cell-based; conditions: fluorescence light irradiation time 60 minutes
Protocol: (§1) Two types of tumor cells were used in this study, and prepared as follows: Fibrosarcoma cells (CCRC 60037) and sarcoma 180 cells (obtained form Biochemical Institute of Chung Shan Medical and Dental College, Taiwan) were maintained and cultured in an α-modified eagle medium (MEM) containing L-glutamine and phenol red. It was supplemented with 10% fetal bovine serum and antibiotics (100 units/mL of penicillin G and 100 μg/mL streptomycin sulfate). The cells were incubated in the dark in 95% humidified air plus 5% CO2, and harvested by treatment with trypsin-EDTA. The harvested cells were suspended in an α-MEM medium at the concentration of 1×10^4 cells per mL.
The cell suspension thus obtained was placed into wells of a 24-well plate (500 μL each) and pre-incubated at 37° C. for 24 hours. F10A16S solutions at various concentrations (0-10 μM) were then added to the wells (500 μL each). The wells were irradiated with fluorescence light (27 watts) for 0-60 minutes. The distance between the plate cover and the light source was set at 5-6 cm. After irradiation, the cells were further incubated for 48 hours. […] The absorbance at 540 nm was correlated with the quantity of formazon, and thus with the quantity of dehydrogenase enzyme or the relative number of living cells (i.e., viability). […]

[2] = test system: Fibrosarcoma cells (CCRC 60037) and sarcoma 180 cells; assay: In vitro irradiation-induced cytotoxicity, MTT cell viability, tumor cells (cell type not specified for the result); type: cell-based
Protocol: as §1
The cell suspension thus obtained was placed into wells of a 24-well plate (500 μL each) and pre-incubated at 37° C. for 24 hours. F10A16S solutions at various concentrations (0-10 μM) were then added to the wells (500 μL each). The wells were irradiated with fluorescence light (27 watts) for 0-60 minutes. The distance between the plate cover and the light source was set at 5-6 cm. After irradiation, the cells were further incubated for 48 hours. A solution of 3-(4,5-dimethylthiazol-2-yl)-2,5-diphenyl-tetrazolium bromide (MTT, 100 μL, 0.5% in PBS, 100 μL each) was then added to each of the wells to react with mitochrondrial dehydrogenase in the living cells to produce formazon. Each cell suspension was again incubated at 37° C. for 3 hours. The suspension medium was then discarded. Formazon formed in cells from each well was then extracted with DMSO (1.0 mL each). The DMSO extract solution was immediately used for optical measurement. The absorbance at 540 nm was correlated with the quantity of formazon, and thus with the quantity of dehydrogenase enzyme or the relative number of living cells (i.e., viability). […] With an irradiation time of 60 minutes, a sharp loss of viable cells was observed when F10A16S concentration was increased from 2.5 to 5.0 μM. A maximal photodynamic cytotoxicity efficacy of >90% was obtained at an F10A16S concentration of 5.0-10.0 μM and an irradiaion time of 60 minutes.

[3] = test system: Murine sarcoma 180 cells subcutaneous tumors; assay: In vivo photodynamic therapy study in tumor-bearing mice; parameters: species or system male ICR mice; conditions: 10 mg/kg intraperitoneal, 100 J/cm^2, day 30
Protocol: A photodynamic therapy study was conducted in male ICR mice (Charles River Japan origin Crl: CD-1® (ICR)BR). The mice were 8 weeks old, weighted 37±0.8 g, housed in polycarbonated shoe-box cages on hardwood bedding (5 mice/cage) under controlled conditions (temperature 22±1° C., relative humidity 55±15%, and light/dark cycle 12/12 hours), and allowed free access to a laboratory rodent diet (#5K55, Purina Mills, Inc., St. Louis, Mo.) and water.
Murine sarcoma 180 cells were maintained by transplantation to other mice in the abdominal cavity biweekly. Subcutaneous tumors were induced by […] injection of 1×10^7 tumor cells (about 0.1-0.15 ml ascitic fluid) to the subcutaneous region of abdominal cavities of the mice for this study, and were allowed to proliferate at the inoculation sites for 5-7 days until they reached a size with a diameter of 10±2 mm. […]
After the treatment, the mouse was examined every 5 days for 30 days. Efficacy of the irradiation therapy was evaluated by measuring the body weights and tumor volumes of the mouse. At day 30, the mice were euthanatized by carbon dioxide asphyxiation, and the weights of the body, liver, kidney, spleen, heart, and tumor, were measured. […]

ferricytochrome C = assay: In vitro irradiation-induced superoxide generation (ferricytochrome C reduction, absorbance at 550 nm); conditions: 25 μM F10A4S, fluorescence light 27 watts, irradiation time 0, 30, 60, 90 minutes
Protocol: The solution thus obtained was added to each well of a 24-well plate, and exposed to fluorescence light source (27 watts) for 0-90 min. The distance between the plate cover and the light source was set at 5-6 cm. The extent of reduction of ferricytochrome C to ferrocytochrome C was evaluated by optical measurement. The increase of the absorbance at 550 nm corresponded to the increase of the quantity of ferrocytochrome C.
In a separate experiment, the presence of superoxide radicals in the solution was confirmed by selective removal of superoxide radicals with superoxide dismutase (SOD, 75 or 150 units).

[4] = Water solubility noted for the isolated product; type: physicochemical
Protocol: 200 mg F12A16 and 15.0 mL DMF were added to a dry flask containing a stirring bar and a condenser under N2. To the DMF solution were either sequentially added 1.0 mL DBU, 0.5 mL 1,4-butane sultone, and stirred at 100° C. for 12.0 hours or sequentially added 70 mg sodium hydride −30° C., stirred for 30 minutes, added 0.5 mL 1,4-butane sultone, and stirred at 60° C. for 6.0 hours. It was then quenched with 100 mL dilute HCl-acetone solution to effect precipitation of a solid. The solid was collected after centrifugation, washed twice with acetonitrile, and dissolved in 15 mL DMSO-H2O (1:5) in the presence of 100 mg Na2CO3. The DMSO-H2O solution was slowly added to acetone, resulting in precipitation of the product F12A16S. The product, in blue, was collected after centrifugation, washed with DMF and acetone, and then dried under vacuum at 40° C. to yield 210-230 mg water-soluble F12A16S.
80 mg F10A4 in 20 mL DMSO, and 60 mg sodium hydride were added into a dry flask equipped with a stirring bar and a condenser at ambient temperature under N2. The solution thus obtained was stirred for 30 minutes, followed by addition of 0.2 mL 1,4-butane sultone. The reaction mixture was slowly heated to 70° C. and stirred for 12.0 hours, and was quenched with 100 mL dilute HCl-acetonitrile solution to effect precipitation. […]

| solubility in water [4] | Substance | IC50 [1] | cell viability with irradiation ([2]; 0-10 μM, irradiation 0-60 minutes) | maximal photodynamic cytotoxicity efficacy ([2]; 5.0-10.0 μM, irradiation time 60 minutes) | cytotoxicity in the absence of light irradiation ([2]; no irradiation, highest concentration 10 μM) | tumor weight less than that of the tumor control group ([3]; laser irradiation at 514 nm) | tumor weight less than that of the tumor control group ([3]; laser irradiation at 633 nm) | production of superoxide radicals upon irradiation (ferricytochrome C) |
| --- | --- | --- | --- | --- | --- | --- | --- | --- |
|  | deca(hexadecaanilino)adduct [F10A16S] | 2.9 µM | decrease in cell viability in both dose-dependent and irradiation time-dependent manners | > 90% | no cystoxicity was observed | roughly 60% | ~99% |  |
| water-soluble | sulfobutylated deca(tetraanilino)-pentakis(methano)-[60]fullerene decacarbamide [F10A4S] |  |  |  |  |  |  | increase systematically in a time-dependent manner |
| water-soluble | sulfobutylated fullerene dodeca(hexadecaanilino)adduct [F12A16S] |  |  |  |  |  |  |  |
